Patent US20060111305A1, “Metabolites of certain [1,4]diazepino[6,7,1-ij]quinoline derivatives and methods of preparation and use thereof” (Wyeth, priority 2004, published 2006)
Several values for one entry are separate records, joined by “and”; a condition that tells them apart may be missing. Equal values may be shown once.

Legend:
[1] = Rat fecal excretion and metabolite profiles after single oral 5 mg/kg [14C]DCDQ; format: in vivo, Sprague-Dawley rats; conditions: male rats
Description: At sacrifice, blood samples were collected by cardiac puncture into tubes containing EDTA as the anticoagulant and placing them on ice. Aliquots of 50 μL were removed for combustion and determination of radioactivity content. Plasma was immediately obtained from the remaining blood by centrifugation at 4° C. Brains were excised after perfusion with 50 mL of chilled sterile saline. Urine samples were collected on dry ice at intervals of 0-8 and 8-24 hour post-dosing. Feces were collected at intervals of 0-8 and 8-24 hr post-dosing at room temperature and were homogenized as described previously. The biological specimens and aliquots of the dosing solution at pre- and post-dose were stored at approximately −70° C. until analyzed.
Brain and fecal samples were weighed and homogenized in water at volume-to-weight ratios of about 1:1 and 5:1, respectively. Blood aliquots (50 μL), brain homogenates (0.1 gram) and fecal homogenates (0.2 gram) were placed on Combusto-cones with Combusto-pads and combusted. A model 307 Tri-Carb Sample Oxidizer, equipped with an Oximate-80 Robotic Automatic Sampler (Perkin Elmer), was used for combustion. The liberated ^14CO2 was trapped with Carbo-Sorb E carbon dioxide absorber, mixed with PermaFluor® E+ liquid scintillation cocktail, and counted in a Tri-Carb Model 3100 TR/LL liquid scintillation counter (Perkin Elmer). The oxidation efficiency of the oxidizer was 98.2%.
Fecal homogenates were analyzed for metabolite profiles. Aliquots of 1 gram of fecal homogenates were mixed with 2 mL methanol, placed on ice for about 10 minutes and centrifuged. The supernatant was transferred to a clean tube. The residue was extracted three times with 2 mL of a water:methanol (3:7) mixture. The supernatants of each sample were combined, evaporated to about 1 mL, and centrifuged. Extraction efficiency was determined by analyzing aliquots of 10 μL of the supernatant for radioactivity. An aliquot (50-200 μL) of the supernatant was analyzed by HPLC with radioactivity flow detection for profiling. Samples were also analyzed by LC/MS to characterize the radioactive peaks.
A Waters model 2690 HPLC system (Waters Corp., Milford, Mass.) with a built-in autosampler was used for analysis. Separations were accomplished on a Phenomenex Luna C18(2) column (150×2.0 mm, 5 μm) (Phenomenex, Torrance, Calif.). The sample chamber of the autosampler was maintained at 4° C., while the column was at ambient temperature of about 20° C. A variable wavelength UV detector set to monitor 250 nm and a Flo-One β Model A525 radioactivity detector described above were used for data acquisition. The HPLC mobile phase consisted of 10 mM ammonium acetate, pH 4.5 (A) and methanol (B), and was delivered at 0.2 mL/min. […]

[2] = M6 to DCDQ ratios in human urine, LC/MS (Table 35); format: in vivo, healthy human subjects
Description: Drug administration and specimen collection were performed in a randomized, double-blinded, placebo-controlled, ascending single dose study of the safety, tolerability, pharmacokinetics, and pharmacodynamics of DCDQ administered orally to healthy subjects and subjects with schizophrenia and schizoaffective disorder. The specimens were stored at approximately −70° C. until analysis for metabolite profiles and for ratios of carbamoyl glucuronide (M6) to DCDQ.
The 0-4, 4-12 and 12-24 hr urine samples from the same subjects in the single dose groups were analyzed for ratios of M6 to DCDQ. The internal standard was not used in the analysis of urine samples. The samples were diluted for 20-fold with a control urine sample and directly analyzed by LC/MS. To estimate M6-to-DCDQ ratios in human urine, control urine samples were spiked with 200 ng/mL of DCDQ and 1000, 5000, or 10000 ng/mL of DCDQ carbamoyl glucuronide, and were analyzed by LC/MS.
LC/MS System 3 was used for semi-quantitative analysis of metabolite M6 (DCDQ carbamoyl glucuronide) in plasma and urine samples. The HPLC equipment for this LC/MS System consisted of a Thermo Surveyor HPLC (Thermo Electron Corp., San Jose, Calif.), including a Surveyor MS pump and autosampler. Separations were accomplished on a 5 micron Phenomenex Luna C18(2) column, 150×2 mm (Phenomenex, Torrance, Calif.). The autosampler and column temperatures were set at 5° C. and 40° C., respectively. The HPLC mobile phase consisted of 10 mM ammonium acetate (A) and methanol (B), and was delivered at 0.2 mL/min. The linear mobile phase gradient (HPLC Gradient 2) is shown below. During LC/MS sample analysis, up to 3 min of the initial flow was diverted away from the mass spectrometer prior to evaluation of metabolites.
The mass spectrometer used for semi-quantitative anslysis with LC/MS System 3 was a Finnigan TSQ Quantum triple quadrupole mass spectrometer (Thermo Electron Corp.). The mass spectrometer was equipped with an electrospray interface and operated in the positive ionization mode. Settings for this mass spectrometer are listed below.
LC/MS/MS analysis in the selected reaction monitoring (SRM) mode (LC/SRM) was conducted for DCDQ and M6 using the following settings.

[3] = 50 mg (fasted), 0-4 hr, Mean ± S.D.
[4] = 50 mg (fasted), 0-4 hr, individual subjects
[5] = 50 mg (fasted), 4-12 hr, Mean ± S.D.
[6] = 50 mg (fasted), 4-12 hr, individual subjects
[7] = 50 mg (fasted), 12-24 hr, individual subjects
[8] = 200 mg (fasted), 0-4 hr, Mean ± S.D.
[9] = 200 mg (fasted), 0-4 hr, individual subjects
[10] = 200 mg (fasted), 4-12 hr, Mean ± S.D.
[11] = 200 mg (fasted), 4-12 hr, individual subjects
[12] = 200 mg (fasted), 12-24 hr, Mean ± S.D.
[13] = 200 mg (fasted), 12-24 hr, individual subjects
[14] = 300 mg (fasted), 0-4 hr, Mean ± S.D.
[15] = 300 mg (fasted), 0-4 hr, individual subjects
[16] = 300 mg (fasted), 4-12 hr, Mean ± S.D.
[17] = 300 mg (fasted), 4-12 hr, individual subjects
[18] = 300 mg (fasted), 12-24 hr, Mean ± S.D.
[19] = 300 mg (fasted), 12-24 hr, individual subjects
[20] = 300 mg (fed), 0-4 hr, Mean ± S.D.
[21] = 300 mg (fed), 0-4 hr, individual subjects
[22] = 300 mg (fed), 4-12 hr, Mean ± S.D.
[23] = 300 mg (fed), 4-12 hr, individual subjects
[24] = 300 mg (fed), 12-24 hr, Mean ± S.D.
[25] = 300 mg (fed), 12-24 hr, individual subjects
[26] = 500 mg (fasted), 0-4 hr, Mean ± S.D.
[27] = 500 mg (fasted), 0-4 hr, individual subjects
[28] = 500 mg (fasted), 4-12 hr, Mean ± S.D.
[29] = 500 mg (fasted), 4-12 hr, individual subjects
[30] = 500 mg (fasted), 12-24 hr, Mean ± S.D.
[31] = 500 mg (fasted), 12-24 hr, individual subjects

SMILES: c1cc2c3c(c1)[C@H]1CCC[C@H]1CN3CCNC2 [DCDQ, (9aR,12aS)-4,5,6,7,9,9a,10,11,12,12a-decahydro-cyclopenta[c][1,4]diazepine[6,7,1-ij]quinoline, reference compound]
- relative abundance in fecal extracts ([1]; 8-24 hour fecal extracts): only trace amounts
- DCDQ concentration in urine [2, 3]: 47.5 ± 58.5 ng/mL
- DCDQ concentration in urine [2, 4]: 115 ng/mL and 13.7 ng/mL (2×)
- DCDQ concentration in urine [2, 5]: 58.4 ± 58.9 ng/mL
- DCDQ concentration in urine [2, 6]: 31 ng/mL and 18.2 ng/mL and 126 ng/mL
- DCDQ concentration in urine ([2]; 50 mg (fasted), 12-24 hr, Mean): 32.7 ± 37.4 ng/mL
- DCDQ concentration in urine [2, 7]: 17.7 ng/mL and 5.21 ng/mL and 75.3 ng/mL
- DCDQ concentration in urine [2, 8]: 199 ± 124 ng/mL
- DCDQ concentration in urine [2, 9]: 251 ng/mL and 288 ng/mL and 57 ng/mL
- DCDQ concentration in urine [2, 10]: 118 ± 51.9 ng/mL
- DCDQ concentration in urine [2, 11]: 79.5 ng/mL and 177 ng/mL and 97.3 ng/mL
- DCDQ concentration in urine [2, 12]: 114 ± 81.5 ng/mL
- DCDQ concentration in urine [2, 13]: 23.1 ng/mL and 181 ng/mL and 137 ng/mL
- DCDQ concentration in urine [2, 14]: 81.4 ± 82.9 ng/mL
- DCDQ concentration in urine [2, 15]: 9.43 ng/mL and 62.8 ng/mL and 172 ng/mL
- DCDQ concentration in urine [2, 16]: 62.5 ± 36.8 ng/mL
- DCDQ concentration in urine [2, 17]: 21.7 ng/mL and 93.4 ng/mL and 72.3 ng/mL
- DCDQ concentration in urine [2, 18]: 128 ± 148 ng/mL
- DCDQ concentration in urine [2, 19]: 22.9 ng/mL and 298 ng/mL and 64.1 ng/mL
- DCDQ concentration in urine [2, 20]: 19.8 ± 31.3 ng/mL
- DCDQ concentration in urine [2, 21]: 55.9 ng/mL and 1.56 ng/mL and 1.82 ng/mL
- DCDQ concentration in urine [2, 22]: 155 ± 115 ng/mL
- DCDQ concentration in urine [2, 23]: 259 ng/mL and 174 ng/mL and 30.6 ng/mL
- DCDQ concentration in urine [2, 24]: 258 ± 125 ng/mL
- DCDQ concentration in urine [2, 25]: 351 ng/mL and 116 ng/mL and 308 ng/mL
- DCDQ concentration in urine [2, 26]: 914 ± 619 ng/mL
- DCDQ concentration in urine [2, 27]: 1569 ng/mL and 835 ng/mL and 339 ng/mL
- DCDQ concentration in urine [2, 28]: 1369 ± 658 ng/mL
- DCDQ concentration in urine [2, 29]: 1683 ng/mL and 612 ng/mL and 1811 ng/mL
- DCDQ concentration in urine [2, 30]: 279 ± 123 ng/mL
- DCDQ concentration in urine [2, 31]: 160 ng/mL and 405 ng/mL and 273 ng/mL

SMILES: O=C(O)[C@H]1O[C@@H](OC(=O)N2CCN3C[C@@H]4CCC[C@@H]4c4cccc(c43)C2)[C@H](O)[C@@H](O)[C@@H]1O [Metabolite M6, carbamoyl glucuronide of DCDQ]
- M6 to DCDQ Ratios [2, 3]: 841 ± 798
- M6 to DCDQ Ratios [2, 4]: 214 and 571 and 1739
- M6 to DCDQ Ratios [2, 5]: 419 ± 174
- M6 to DCDQ Ratios [2, 6]: 389 and 606 and 261
- M6 to DCDQ Ratios ([2]; 50 mg (fasted), 12-24 hr, Mean): 155 ± 98.1
- M6 to DCDQ Ratios [2, 7]: 143 and 259 and 63.9
- M6 to DCDQ Ratios [2, 8]: 151 ± 32.9
- M6 to DCDQ Ratios [2, 9]: 169 and 171 and 113
- M6 to DCDQ Ratios [2, 10]: 284 ± 98.7
- M6 to DCDQ Ratios [2, 11]: 397 and 240 and 215
- M6 to DCDQ Ratios [2, 12]: 115 ± 90.4
- M6 to DCDQ Ratios [2, 13]: 216 and 85.9 and 42.3
- M6 to DCDQ Ratios [2, 14]: 820 ± 365
- M6 to DCDQ Ratios [2, 15]: 1167 and 852 and 440
- M6 to DCDQ Ratios [2, 16]: 732 ± 702
- M6 to DCDQ Ratios [2, 17]: 329 and 1543 and 324
- M6 to DCDQ Ratios [2, 18]: 241 ± 212
- M6 to DCDQ Ratios [2, 19]: 485 and 127 and 110
- M6 to DCDQ Ratios [2, 20]: 1018 ± 520
- M6 to DCDQ Ratios [2, 21]: 1162 and 441 and 1451
- M6 to DCDQ Ratios [2, 22]: 761 ± 508
- M6 to DCDQ Ratios [2, 23]: 375 and 571 and 1337
- M6 to DCDQ Ratios [2, 24]: 142 ± 46.0
- M6 to DCDQ Ratios [2, 25]: 148 and 92.6 and 184
- M6 to DCDQ Ratios [2, 26]: 97.6 ± 55.2
- M6 to DCDQ Ratios [2, 27]: 71.5 and 60.2 and 161
- M6 to DCDQ Ratios [2, 28]: 84.3 ± 58.6
- M6 to DCDQ Ratios [2, 29]: 149 and 34.6 and 69.4
- M6 to DCDQ Ratios [2, 30]: 176 ± 128
- M6 to DCDQ Ratios [2, 31]: 288 and 36.0 and 203

SMILES: c1cc2c3c(c1)[C@H]1CCC[C@H]1CN3CCNC2 [[^14C]DCDQ]
- dosed radioactivity in feces ([1]; 0-8 hour fecal samples): less than 0.1%
- dosed radioactivity recovered in feces ([1]; first 24 hours post-dosing): 21.1±2.1%
